Source: article PMC10708960 (Computational and Structural Biotechnology Journal, 2023)

Experiments:
[1] = system: c-Met mutations of L1195 and F1200; details: type I inhibitors; Fig. S10; cited from earlier work
[2] = system: c-Met mutations of D1228 and Y1230; details: cited from earlier work; for affinity against mutations of D1228 and Y1230: type I inhibitors, Fig. S10
[3] = system: c-Met; details: no reference given; cited from earlier work
[4] = target: c-Src (Gallus gallus, UniProt P00523); experiment: biochemical; set-up: species or system Chicken
[5] = system: c-Met F1200I mutant; details: Fig. S10; cited from earlier work

Row | SMILES | activity against mutations of L1195 and F1200 [1] | affinity against mutations of D1228 and Y1230 [2] | other results
1 | C[C@@H](c1ccc2nccn2c1)n1nnc2ncc(-c3cnn(C)c3)nc21 [savolitinib] | potent activity | low affinity | –
2 | CN1CCC(COc2cnc(-c3cccc(Cn4nc(-c5cccc(C#N)c5)ccc4=O)c3)nc2)CC1 [tepotinib] | potent activity | low affinity | –
3 | CNC(=O)c1ccc(-c2cnc3ncc(Cc4ccc5ncccc5c4)n3n2)cc1F [capmatinib] | potent activity | low affinity | –
4 | C[C@H]1CNC(=O)c2cnn3ccc(nc23)N[C@H](C)c2cc(F)ccc2O1 [TPX-0005] | – | – | affinity for c-Met [3]: low affinity
5 | CCN1Cc2c(ccc(F)c2C#N)O[C@@H](C)CNC(=O)c2c(N)nn3ccc1nc23 [TPX-0022] | – | – | IC50 [4]: 3.7 nM
6 | C[C@@H](Oc1cc(-c2cnn(C3CCNCC3)c2)cnc1N)c1c(Cl)ccc(F)c1Cl [crizotinib] | – | – | potency for the F1200I mutant [5]: 50 to 200 nM
7 | COc1cc2nccc(Oc3ccc(NC(=O)C4(C(=O)Nc5ccc(F)cc5)CC4)cc3)c2cc1OC [cabozantinib] | – | – | ability to overcome mutations of D1228 and Y1230 ([2]; type II inhibitor): could overcome
